Experiments:
[1] = tested on: retinal vascular permeability; assay: Qualitative evaluation of retinal vascular permeability with 20-kDa FITC conjugated dextran; format: in vivo, Brown Norway rats; conditions: flat-mount retinas, VEGF-injected eyes with or without aprotinin
Method: Retinal vascular permeability was documented in a histological manner by intravenous injection of 20-kDa FITC conjugated dextran (50 mg/Kg, Sigma Aldrich). Rats were sacrificed 30 minutes later with intracardiac perfusion of 4% paraformaldehyde to fix the dextran conjugate in the tissues. The retinas were carefully dissected and flat mounted in anti-fading medium (Vector Laboratories). Flat-mount retinas were examined by fluorescent microscopy. Digital color enhancement (green) was equally applied to all images for improved visualization of fluorescence.

[2] = tested on: intravitreal leukocyte accumulation in EIU; assay: Intravitreal leukocyte accumulation in Endotoxin-Induced-Uveitis; format: in vivo, Lewis rats; conditions: 24 hours post LPS-injection; aprotinin 50,000KIU at 0, 8, 16 hours; EIU 343.6±11.7
Method: (§1) EIU was induced in Lewis rats via footpad injection of 100 μl (1 mg/ml) lipopolysaccharide (LPS). Control animals received an equal volume of saline. The experiments were conducted 24 hours after LPS injection. At this time point, several experimental parameters were assessed.
(§2) To block AZ, animals received 5 ml of aprotinin (Trasylol®; 50,000KIU). The first injection was given at the same time as the footpad injection, followed by a second injection 8 hours later and a third injection 16 hours later. The control animals received and equal amounts of vehicle control. LPS was purchased in lyophilized form from Sigma (#L6511).
To assess leukocyte extravasations into the vitreal cavity during EIU, histological slides of the whole eyes of treated rats were generated and the number of leukocytes in the vitreous cavity of these sections was counted. To do so, whole eyes were placed in 4% paraformaldehyde for fixation. Gradual infiltration of graded alcohols was followed by xylene and finally by liquid paraffin. Paraffin submerged eyes were then cooled to harden. Six-micron sections were cut on a Leica microtome and placed on slides. Sections were stained with hematoxylin and eosin and coverslipped.

[3] = tested on: retinal leukostasis in EIU; assay: Retinal leukostasis in Endotoxin-Induced-Uveitis (ConA staining); format: in vivo, Lewis rats; conditions: 24 hours post EIU induction; aprotinin 50,000KIU at 0, 8, 16 hours; EIU 106.6±6.5, normal 17±1.2; n=6
Method: as §1, §2
Under deep anesthesia, a rat's chest cavity was opened, and its left ventricle was cannulated to allow perfusion (Ishida (2003) supra). The rat's right atrium was opened to achieve outflow. […] The eyes were enucleated, and the retinas were dissected and flatmounted in a water-based fluorescence anti-fading medium (Fluoromount; Southern Biotechnology, Birmingham, Ala.) and imaged by fluorescence microscopy (Leica, FITC filter). […] Leukocytes in arteries, veins, and capillaries of each retinal tissue were counted, and the total number of adherent leukocytes per retina was calculated. […]

[4] = tested on: choroidal neovascular leakage; assay: Laser-induced CNV leakage by fluorescein angiography (model of AMD); format: in vivo, mice; conditions: 50,000KIU/day, i.p.
Excerpt: Laser-induced CNV is a VEGF-dependent model for exudative changes that occur in AMD. In this model, disruption of an animal's Bruch's membrane by laser results in formation of CNV lesions. In these lesions, neovascular capillaries originate within the choroid and extend through the disrupted Bruch's membrane into the outer nuclear layer of the retina. The formation of these leaky capillaries is mainly attributed to changes in the level of angiogenic growth factors such as VEGF.
To perform the procedure, the pupils were dilated with 1-2 drops of 1% tropicamide. Subsequently, 4-6 photocoagulation lesions were delivered to each eye, using a Coherent argon laser (532 nm wavelength, 50 μm spot size, 0.1 s duration, 120-160 mW; model 920; Coherent, Palo Alto, Calif.) between the retinal vessels in a peripapillary distribution in each fundus, using a slit lamp delivery system and a cover glass as a contact lens. The genesis of a bubble at the time of laser treatment confirmed the rupture of the Bruch's membrane. […] Images were captured on a computer (using the IMAGEnet for Windows software, Topcon, Paramus, N.J.). Two masked evaluators performed the grading of the retinal images. A choroidal neovascular membrane is considered to be present if there was early hyperfluorescence followed by later leakage at the site where the laser injury is induced. […]

aprotinin
retinal distribution of intravenously injected 20 kDa FITC-conjugated dextran [1]: fluorescein staining more localized to the retinal vasculature | number of leukocytes found intravitreally [2]: 119.2±8.4 | retinal leukostasis (firmly adhering leukocytes per retina) [3]: 32.4±2.9 cells | CNV leakage on fluorescein angiography compared to vehicle treated controls ([4]; day 7 post injury): substantially smaller | CNV lesion size on fluorescein angiography ([4]; day 14 post injury): further reduced lesion size
